How the values were obtained:
[1] = Electronic absorption spectra in organic solvents; assay type: physicochemical
Method: (§1) The absorption and emission spectra of dyes solutions (in the range of 10^−6 to 10^−5 M) were recorded on CM 2203 spectrofluorometer (SOLAR) in a 10 mm of absorbing layer thickness at T = 25 ± 0.1 °C. The fluorescence quantum yield (φ), the fluorescence lifetime (τ), the rate constants of radiative processes (krad), and-radiative deactivation (knr) were obtained to use by the standard procedure. The fluorescence quantum yields (φ) of compounds were measured using the standard method (using standard Rhodamine 6G). The φ and τ errors were 10–15 %. The Stokes shift ( ΔλSt ) was calculated by the formula: […]

[2] = Luminescent characteristics (fluorescence) in organic solvents; assay type: physicochemical; conditions: for λmaxfl: λex 470 nm
Method: as §1

With `CC1=CC(C)=[N+]2C1=Cc1c(C)cc(C)n1[B-]2(F)F` [Compound 7, 4,4-Difluoro-1,3,5,7-tetramethyl-4-bora-3a,4a-diaza-s-indacene, reference compound] the “ε, molar absorption coefficient” value ([1]; 1-butanol) was 86745 L/mol/cm, the “λmaxabs S0→S1” value ([1]; 1-butanol) was 506 nm and the “λmaxabs S0→S2” value ([1]; 1-butanol) was 364–375 nm. The “ε, molar absorption coefficient” value ([1]; 1-octanol) was 84427 L/mol/cm, the “λmaxabs S0→S1” value ([1]; 1-octanol) was 508 nm and the “λmaxabs S0→S2” value ([1]; 1-octanol) was 362–376 nm. For the same compound, the “ε, molar absorption coefficient” value ([1]; 1-propanol) was 87096 L/mol/cm, the “λmaxabs S0→S1” value ([1]; 1-propanol) was 503 nm and the “λmaxabs S0→S2” value ([1]; 1-propanol) was 362–375 nm. The “ε, molar absorption coefficient” value ([1]; DMF) was 85857 L/mol/cm, the “λmaxabs S0→S1” value ([1]; DMF) was 503 nm and the “λmaxabs S0→S2” value ([1]; DMF) was 364–375 nm. The “ε, molar absorption coefficient” value ([1]; DMSO) was 82190 L/mol/cm, the “λmaxabs S0→S1” value ([1]; DMSO) was 504 nm and the “λmaxabs S0→S2” value ([1]; DMSO) was 363–376 nm. For the same compound, the “ε, molar absorption coefficient” value ([1]; chloroform) was 89125 L/mol/cm, the “λmaxabs S0→S1” value ([1]; chloroform) was 508 nm and the “λmaxabs S0→S2” value ([1]; chloroform) was 363–374 nm. The “ε, molar absorption coefficient” value ([1]; cyclohexane) was 91201 L/mol/cm, the “λmaxabs S0→S1” value ([1]; cyclohexane) was 509 nm and the “λmaxabs S0→S2” value ([1]; cyclohexane) was 366–376 nm. The “ε, molar absorption coefficient” value ([1]; ethanol) was 81283 L/mol/cm, the “λmaxabs S0→S1” value ([1]; ethanol) was 505 nm and the “λmaxabs S0→S2” value ([1]; ethanol) was 363–374 nm. The “ε, molar absorption coefficient” value ([1]; toluene) was 82444 L/mol/cm, the “λmaxabs S0→S1” value ([1]; toluene) was 511 nm and the “λmaxabs S0→S2” value ([1]; toluene) was 365–373 nm. The “ΔλSt, Stokes shift” value ([2]; 1-butanol) was 10 nm, the “φ, fluorescence quantum yield” value ([2]; 1-butanol) was 0.932 and the λmaxfl ([2]; 1-butanol) was 516 nm. The “ΔλSt, Stokes shift” value ([2]; 1-octanol) was 8 nm, the “φ, fluorescence quantum yield” value ([2]; 1-octanol) was 0.941 and the λmaxfl ([2]; 1-octanol) was 516 nm. For the same compound, the “ΔλSt, Stokes shift” value ([2]; 1-propanol) was 10 nm, the “φ, fluorescence quantum yield” value ([2]; 1-propanol) was 0.920 and the λmaxfl ([2]; 1-propanol) was 513 nm. For the same compound, the “ΔλSt, Stokes shift” value ([2]; DMF) was 10 nm, the “φ, fluorescence quantum yield” value ([2]; DMF) was 0.990 and the λmaxfl ([2]; DMF) was 513 nm. The “ΔλSt, Stokes shift” value ([2]; DMSO) was 12 nm, the “φ, fluorescence quantum yield” value ([2]; DMSO) was 0.963 and the λmaxfl ([2]; DMSO) was 516 nm. The “Stokes shift, range” value ([2]; all solvents) was 6–12 nm, the “ΔλSt, Stokes shift” value ([2]; chloroform) was 8 nm and the “φ, fluorescence quantum yield” value ([2]; chloroform) was 0.903. For the same compound, the λmaxfl ([2]; chloroform) was 516 nm, the “φ, fluorescence quantum yield” value ([2]; cyclohexane) was 1.0 and the λmaxfl ([2]; cyclohexane) was 514 nm. For the same compound, the “ΔλSt, Stokes shift” value ([2]; ethanol) was 7 nm, the “φ, fluorescence quantum yield” value ([2]; ethanol) was 0.879 and the λmaxfl ([2]; ethanol) was 512 nm. The “ΔλSt, Stokes shift” value ([2]; toluene) was 8 nm, the “φ, fluorescence quantum yield” value ([2]; toluene) was 0.825 and the λmaxfl ([2]; toluene) was 519 nm.
